Experimental data from patent US12139520B2 (priority 2020, dated 2024).
Numbered stars: 1 amine (or outer) side, 2 acyl side, 3 side chain; on linkers, the order of the positions; unused ones are H or OH. Bridge positions count the residues as written; N and C are the ends. Square brackets hold non-standard residues; d marks the D form. Peptide text beside a SMILES is read from it. * marks the point of attachment. C20 diacid = O=C(O)CCCCCCCCCCCCCCCCCCC(=O)*; γGlu = O=C(O)[C@H](CCC(=O)[*:2])N[*:1]; Hyp = O=C(O)[C@@H]1C[C@@H](O)CN1; Trx = NC[C@H]1CC[C@H](C(=O)O)CC1; AEEA = NCCOCCOCC(=O)O

Legend:
[1] = biological target: T1, hAMY3 receptor (Homo sapiens, UniProt O60896+P30988); experiment: cAMP assay for in vitro receptor activation, hAMY3-R; format: cell-based; conditions: cAMP assay, hAMY3 receptor; read-out: hAMY3R EC50
T1 sequence (P30988 25-474): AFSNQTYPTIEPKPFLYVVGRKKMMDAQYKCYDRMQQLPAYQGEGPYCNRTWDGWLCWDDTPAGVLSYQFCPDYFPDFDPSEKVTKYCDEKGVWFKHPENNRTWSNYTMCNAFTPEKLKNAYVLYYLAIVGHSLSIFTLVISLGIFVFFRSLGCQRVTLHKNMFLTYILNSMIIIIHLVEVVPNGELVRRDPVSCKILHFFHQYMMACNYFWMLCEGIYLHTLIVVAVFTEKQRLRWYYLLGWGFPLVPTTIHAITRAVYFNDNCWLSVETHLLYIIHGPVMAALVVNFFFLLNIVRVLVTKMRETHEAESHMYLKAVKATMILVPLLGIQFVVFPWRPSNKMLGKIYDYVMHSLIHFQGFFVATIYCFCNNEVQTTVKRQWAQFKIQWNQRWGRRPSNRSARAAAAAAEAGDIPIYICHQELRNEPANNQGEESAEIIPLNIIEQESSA
T1 sequence (O60896 24-148 partner): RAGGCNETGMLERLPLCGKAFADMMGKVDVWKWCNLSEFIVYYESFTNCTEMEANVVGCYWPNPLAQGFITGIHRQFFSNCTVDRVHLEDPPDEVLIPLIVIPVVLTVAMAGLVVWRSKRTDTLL
Summary of the method: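 Read-out is TR-FRET cAMP signal, recorded one hour after reagent addition, following 30 min room-temperature stimulation of stable hAMY3 cells with graded compound doses in casein/IBMX (0.5 mM) buffer.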

[2] = biological target: hAM1 receptor (Homo sapiens, UniProt O60895+Q16602); experiment: cAMP assay for in vitro receptor activation, hAM1-R; format: cell-based; conditions: cAMP assay, hAM1 receptor; read-out: hAM1R EC50
Summary of the method: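 A subcloned monoclonal line stably expressing hAM1 receptor is thawed and plated at 8000 cells/well. The assay buffer is DPBS with 0.05% casein and 0.5 mM IBMX, and receptor activation is followed by cAMP levels.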

Sequence of hAM1 receptor (Q16602 23-461): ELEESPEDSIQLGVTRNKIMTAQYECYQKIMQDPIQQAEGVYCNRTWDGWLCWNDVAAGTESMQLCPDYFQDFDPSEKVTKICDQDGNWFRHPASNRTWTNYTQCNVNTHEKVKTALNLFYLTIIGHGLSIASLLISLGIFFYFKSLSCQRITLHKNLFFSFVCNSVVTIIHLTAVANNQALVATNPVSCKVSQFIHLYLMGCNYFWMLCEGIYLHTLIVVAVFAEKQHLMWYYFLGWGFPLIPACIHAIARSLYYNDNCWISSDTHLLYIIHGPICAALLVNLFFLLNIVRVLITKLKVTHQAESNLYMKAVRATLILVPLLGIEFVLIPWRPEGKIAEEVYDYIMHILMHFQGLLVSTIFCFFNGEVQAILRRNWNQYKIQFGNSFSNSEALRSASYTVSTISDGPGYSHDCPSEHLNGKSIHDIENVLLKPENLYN
Sequence of hAM1 receptor (O60895 43-175 partner): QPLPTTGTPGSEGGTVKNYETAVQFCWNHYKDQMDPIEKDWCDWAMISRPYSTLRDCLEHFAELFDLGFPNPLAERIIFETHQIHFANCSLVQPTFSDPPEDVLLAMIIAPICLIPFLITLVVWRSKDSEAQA

SMILES	EC50 [1] [nM]	EC50 [2] [nM]
CC[C@H](C)[C@H](NC(=O)[C@H](CCC(N)=O)NC(=O)[C@H](Cc1c[nH]cn1)NC(=O)[C@H](C)NC(=O)[C@H](CC(C)C)NC(=O)[C@H](CCCNC(=N)N)NC(=O)[C@H](CCC(N)=O)NC(=O)[C@@H](NC(=O)[C@@H](NC(=O)[C@@H]1CSSC[C@H](NC(=O)[C@H](CCCNC(=N)N)NC(=O)CC[C@H](NC(=O)CCCCCCCCCCCCCCCCCCC(=O)O)C(=O)O)C(=O)N[C@@H](CC(N)=O)C(=O)N[C@@H]([C@@H](C)O)C(=O)N[C@@H](C)C(=O)N[C@@H]([C@@H](C)O)C(=O)N1)[C@@H](C)O)C(C)C)C(=O)N[C@@H](Cc1ccc(O)cc1)C(=O)N[C@@H](CCC(N)=O)C(=O)N[C@@H](Cc1ccccc1)C(=O)N[C@H](C(=O)N[C@@H](CC(=O)O)C(=O)N[C@@H](CCCCN)C(=O)N[C@@H](CC(=O)O)C(=O)N[C@@H](CCCCN)C(=O)N[C@@H](CC(=O)O)C(=O)N[C@@H](CC(N)=O)C(=O)N[C@H](C(=O)N[C@@H](C)C(=O)N1CCC[C@H]1C(=O)N1CCC[C@H]1C(=O)N[C@H](C(=O)N[C@@H](CC(N)=O)C(=O)N[C@H](C(=O)NCC(=O)N[C@@H](CO)C(=O)N[C@@H](CC(N)=O)C(=O)NCC(=O)N1C[C@H](O)C[C@H]1C(N)=O)C(C)C)[C@@H](C)O)C(C)C)[C@@H](C)O [compound 39] ({C20 diacid-γGlu}-RCNTATCTVQRLAHQIYQFTDKDKDNVAPPTNVGSNG[Hyp]-NH2; disulfide 2-7)	0.01	> 5000
CC[C@H](C)[C@H](NC(=O)[C@H](CCC(N)=O)NC(=O)[C@H](Cc1c[nH]cn1)NC(=O)[C@H](C)NC(=O)[C@H](CC(C)C)NC(=O)[C@H](CCCNC(=N)N)NC(=O)[C@H](CCC(N)=O)NC(=O)[C@@H](NC(=O)[C@@H](NC(=O)[C@@H]1CSSC[C@H](NC(=O)[C@H](CCCCN)NC(=O)CC[C@H](NC(=O)CCCCCCCCCCCCCCCCCCC(=O)O)C(=O)O)C(=O)N[C@@H](CC(N)=O)C(=O)N[C@@H]([C@@H](C)O)C(=O)N[C@@H](C)C(=O)N[C@@H]([C@@H](C)O)C(=O)N1)[C@@H](C)O)C(C)C)C(=O)N[C@@H](CC(N)=O)C(=O)N[C@@H](CCC(N)=O)C(=O)N[C@@H](Cc1ccccc1)C(=O)N[C@H](C(=O)N[C@@H](CC(=O)O)C(=O)N[C@@H](CCCCN)C(=O)N[C@@H](CC(=O)O)C(=O)N[C@@H](CCCCN)C(=O)N[C@@H](CC(=O)O)C(=O)N[C@@H](CC(N)=O)C(=O)N[C@H](C(=O)N[C@@H](C)C(=O)N1CCC[C@H]1C(=O)N1CCC[C@H]1C(=O)N[C@H](C(=O)N[C@@H](CC(N)=O)C(=O)N[C@H](C(=O)NCC(=O)N[C@@H](CO)C(=O)N[C@@H](CC(N)=O)C(=O)NCC(=O)N1C[C@H](O)C[C@H]1C(N)=O)C(C)C)[C@@H](C)O)C(C)C)[C@@H](C)O [compound 11] ({C20 diacid-γGlu}-KCNTATCTVQRLAHQINQFTDKDKDNVAPPTNVGSNG[Hyp]-NH2; disulfide 2-7)	0.007	> 5000
CC[C@H](C)[C@H](NC(=O)[C@H](CCC(N)=O)NC(=O)[C@H](Cc1c[nH]cn1)NC(=O)[C@H](C)NC(=O)[C@H](CC(C)C)NC(=O)[C@H](CCCNC(=N)N)NC(=O)[C@H](CCC(N)=O)NC(=O)[C@@H](NC(=O)[C@@H](NC(=O)[C@@H]1CSSC[C@H](NC(=O)[C@H](CCCCN)NC(=O)CC[C@H](NC(=O)CCCCCCCCCCCCCCCCCCC(=O)O)C(=O)O)C(=O)N[C@@H](CC(N)=O)C(=O)N[C@@H]([C@@H](C)O)C(=O)N[C@@H](C)C(=O)N[C@@H]([C@@H](C)O)C(=O)N1)[C@@H](C)O)C(C)C)C(=O)N[C@@H](CCC(=O)O)C(=O)N[C@@H](CCC(N)=O)C(=O)N[C@@H](Cc1ccccc1)C(=O)N[C@H](C(=O)N[C@@H](CC(=O)O)C(=O)N[C@@H](CCCCN)C(=O)N[C@@H](CC(=O)O)C(=O)N[C@@H](CCCCN)C(=O)N[C@@H](CC(=O)O)C(=O)N[C@@H](CC(N)=O)C(=O)N[C@H](C(=O)N[C@@H](C)C(=O)N1CCC[C@H]1C(=O)N1CCC[C@H]1C(=O)N[C@H](C(=O)N[C@@H](CC(N)=O)C(=O)N[C@H](C(=O)NCC(=O)N[C@@H](CO)C(=O)N[C@@H](CC(N)=O)C(=O)NCC(=O)N1C[C@H](O)C[C@H]1C(N)=O)C(C)C)[C@@H](C)O)C(C)C)[C@@H](C)O [compound 110] ({C20 diacid-γGlu}-KCNTATCTVQRLAHQIEQFTDKDKDNVAPPTNVGSNG[Hyp]-NH2; disulfide 2-7)	0.02	> 5000

Second part, the compound after the results:

EC50 [1] [nM]	EC50 [2] [nM]	SMILES
0.028	107	CC[C@H](C)[C@H](NC(=O)[C@H](CCCCN)NC(=O)[C@H](CO)NC(=O)[C@H](CCCNC(=N)N)NC(=O)[C@@H]1CCCN1C(=O)[C@H](C)NC(=O)[C@@H](NC(=O)[C@H](CC(N)=O)NC(=O)[C@H](CC(=O)O)NC(=O)[C@H](CCCCN)NC(=O)[C@H](CC(=O)O)NC(=O)[C@H](CCCCN)NC(=O)[C@H](CC(=O)O)NC(=O)[C@@H](NC(=O)[C@H](Cc1ccccc1)NC(=O)[C@H](CCC(N)=O)NC(=O)[C@H](Cc1ccc(O)cc1)NC(=O)[C@@H](NC(=O)[C@H](CCC(N)=O)NC(=O)[C@H](Cc1c[nH]cn1)NC(=O)[C@H](C)NC(=O)[C@H](CC(C)C)NC(=O)[C@H](CCCNC(=N)N)NC(=O)[C@H](CCC(N)=O)NC(=O)[C@@H](NC(=O)[C@@H](NC(=O)[C@@H]1CSSC[C@H](NC(=O)CN)C(=O)N[C@@H](CCCNC(=N)N)C(=O)N[C@@H](Cc2ccccc2)C(=O)NCC(=O)N[C@@H]([C@@H](C)O)C(=O)N1)[C@@H](C)O)C(C)C)[C@@H](C)CC)[C@@H](C)O)C(C)C)C(=O)NCC(=O)N1CCC[C@H]1C(=O)N[C@@H](CCC(N)=O)C(=O)NCC(=O)N1C[C@H](O)C[C@H]1C(N)=O [compound 127] (H-GCRFGTCTVQRLAHQIYQFTDKDKDNVAPRSKIGPQG[Hyp]-NH2; disulfide 2-7; N-terminus assumed)
0.027	> 5000	CC[C@H](C)[C@H](NC(=O)[C@H](CCC(N)=O)NC(=O)[C@H](CCC(=O)O)NC(=O)[C@H](C)NC(=O)[C@H](CC(C)C)NC(=O)[C@H](CCCNC(=N)N)NC(=O)[C@H](CCC(N)=O)NC(=O)[C@@H](NC(=O)[C@@H](NC(=O)[C@@H]1CSSC[C@H](NC(=O)[C@H](CCCCN)NC(=O)COCCOCCNC(=O)COCCOCCNC(=O)CC[C@H](NC(=O)[C@H]2CC[C@H](CNC(=O)CCCCCCCCCCCCCCCCCCC(=O)O)CC2)C(=O)O)C(=O)N[C@@H](CC(N)=O)C(=O)N[C@@H]([C@@H](C)O)C(=O)N[C@@H](C)C(=O)N[C@@H]([C@@H](C)O)C(=O)N1)[C@@H](C)O)C(C)C)C(=O)N[C@@H](Cc1ccc(O)cc1)C(=O)N[C@@H](CCC(N)=O)C(=O)N[C@@H](Cc1ccccc1)C(=O)N[C@H](C(=O)N[C@@H](CC(=O)O)C(=O)N[C@@H](CCCCN)C(=O)N[C@@H](CC(=O)O)C(=O)N[C@@H](CCCCN)C(=O)N[C@@H](CC(=O)O)C(=O)N[C@@H](CC(N)=O)C(=O)N[C@H](C(=O)N[C@@H](C)C(=O)N1CCC[C@H]1C(=O)N1CCC[C@H]1C(=O)N[C@H](C(=O)N[C@@H](CC(N)=O)C(=O)N[C@H](C(=O)NCC(=O)N[C@@H](CO)C(=O)N[C@@H](CC(N)=O)C(=O)NCC(=O)N1C[C@H](O)C[C@H]1C(N)=O)C(C)C)[C@@H](C)O)C(C)C)[C@@H](C)O [compound 126] ({C20 diacid-Trx-γGlu-AEEA-AEEA}-KCNTATCTVQRLAEQIYQFTDKDKDNVAPPTNVGSNG[Hyp]-NH2; disulfide 2-7)
0.03	> 5000	CC[C@H](C)[C@H](NC(=O)[C@H](CCC(N)=O)NC(=O)[C@H](Cc1c[nH]cn1)NC(=O)[C@H](C)NC(=O)[C@H](CC(C)C)NC(=O)[C@H](CCCNC(=N)N)NC(=O)[C@H](CC(=O)O)NC(=O)[C@@H](NC(=O)[C@@H](NC(=O)[C@@H]1CSSC[C@H](NC(=O)[C@H](CCCCN)NC(=O)CC[C@H](NC(=O)CCCCCCCCCCCCCCCCCCC(=O)O)C(=O)O)C(=O)N[C@@H](CC(N)=O)C(=O)N[C@@H]([C@@H](C)O)C(=O)N[C@@H](C)C(=O)N[C@@H]([C@@H](C)O)C(=O)N1)[C@@H](C)O)C(C)C)C(=O)N[C@@H](C)C(=O)N[C@@H](CCC(N)=O)C(=O)N[C@@H](Cc1ccccc1)C(=O)N[C@H](C(=O)N[C@@H](CC(=O)O)C(=O)N[C@@H](CCCCN)C(=O)N[C@@H](CC(=O)O)C(=O)N[C@@H](CCCCN)C(=O)N[C@@H](CC(=O)O)C(=O)N1CCC[C@H]1C(=O)N[C@H](C(=O)N[C@@H](C)C(=O)N1CCC[C@H]1C(=O)N1CCC[C@H]1C(=O)N[C@H](C(=O)N[C@@H](CC(N)=O)C(=O)N[C@H](C(=O)NCC(=O)N[C@@H](CO)C(=O)N[C@@H](CC(N)=O)C(=O)NCC(=O)N1C[C@H](O)C[C@H]1C(N)=O)C(C)C)[C@@H](C)O)C(C)C)[C@@H](C)O [compound 130] ({C20 diacid-γGlu}-KCNTATCTVDRLAHQIAQFTDKDKDPVAPPTNVGSNG[Hyp]-NH2; disulfide 2-7)
